Patent US12172983B2, “EGFR inhibitors” (Blueprint Medicines Corporation, priority 2019, dated 2024)
Like-named read-outs stand apart in the source and are kept apart here.

Tests used:
EGFR (L858R T790M C797S) = target: T1, EGFR (L858R T790M C797S) (Homo sapiens, UniProt P00533, C797S/L858R/T790M); test: Biochemical EGFR inhibition assay (Caliper mobility shift), EGFR LRTMCS mutant; settings: inhibitory activity against EGFR LRTMCS mutant; apparent IC50; read-out: Ext Enz LRTMCS
T1 construct: purchased SignalChem E10-122VG
Method in brief: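 Kinase reactions proceed at 25° C. to 10%–20% conversion of total peptide, are terminated with 35 mM EDTA, and the phosphopeptide is resolved from substrate by electrophoretic mobility shift. Apparent IC50 values come from plotting percent activity against log compound concentration.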

[1] = tested on: phosphorylation of EGFR (Tyr1068) in NCI-H1975 cell line that harbors the EGFR L858R T790M mutations; test: NCI-H1975 pEGFR AlphaLISA assay; format: cell-based; settings: 4-5 hours incubation, read-out: Ext pEGFR H1975
Method in brief: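 Phospho-EGFR Tyr1068 AlphaLISA readout: lysates taken from compound-treated H1975 cells (L858R T790M EGFR) after a 4-5 h exposure at 37 °C. Cells had adhered overnight beforehand. IC50 derived by plotting % pEGFR inhibition against log compound concentration.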

[2] = Homo sapiens, NCI-H1975, inhibition of phosphorylation of mutant EGFR in NCI-H1975 cells
[3] = inhibition of phosphorylation of mutant EGFR in NCI-H1975 cells

| Compound | IC50 (EGFR (L858R T790M C797S)) | IC50 [1, 2] | IC50 [1, 3] |
| --- | --- | --- | --- |
| CC(C)c1ccc(N2CC(CS(C)(=O)=O)C2)c2cnc(Nc3ccnc(N4CC[C@](C)(O)[C@@](C)(F)C4)n3)cc12 (single isomer, unassigned) [Compound 114, (3S,4S)-3-fluoro-1-[4-({8-[3-(methanesulfonylmethyl)azetidin-1-yl]-5-(propan-2-yl)isoquinolin-3-yl}amino)pyrimidin-2-yl]-3,4-dimethylpiperidin-4-ol or (3R,4R)-3-fluoro-1-[4-({8-[3-(methanesulfonylmethyl)azetidin-1-yl]-5-(propan-2-yl)isoquinolin-3-yl}amino)pyrimidin-2-yl]-3,4-dimethylpiperidin-4-ol] | 30.1 to 100 nM | 30.1 to 50 nM | – |
| CCS(=O)(=O)C[C@H]1CN(c2ncc(C(C)C)c3cc(Nc4ccnc(N5CC[C@H](OC)[C@@H](O)C5)n4)ncc23)[C@@H]1C (single isomer, unassigned) [Compound 179] | ≤ 15 nM | ≤ 10 nM | – |
| CCS(=O)(=O)C[C@H]1CN(c2ncc(C(C)C)c3cc(Nc4ccnc(N5CC[C@@H](OC)[C@@H](O)C5)n4)ncc23)[C@@H]1C (single isomer, unassigned) [Compound 178] | ≤ 15 nM | ≤ 10 nM | – |
| COc1ccc(N2CC(CS(C)(=O)=O)C2)c2cnc(Nc3ccnc(N4CC[C@@H](O)[C@@](C)(F)C4)n3)cc12 (single isomer, unassigned) [Compound 32] | ≤ 15 nM | 20.1 to 30 nM | – |
| CN(C)CCS(=O)(=O)CC1CN(c2cccc3cc(Nc4ccnc(N5C[C@@H](F)[C@@H](O)C(C)(C)C5)n4)ncc23)C1 (single isomer, unassigned) [Compound 192, (4S,5R)-1-(4-{[8-(3-{[2-(dimethylamino)ethanesulfonyl]methyl}azetidin-1-yl)isoquinolin-3-yl]amino}pyrimidin-2-yl)-5-fluoro-3,3-dimethylpiperidin-4-ol or (4R,5S)-1-(4-{[8-(3-{[2-(dimethylamino)ethanesulfonyl]methyl}azetidin-1-yl)isoquinolin-3-yl]amino}pyrimidin-2-yl)-5-fluoro-3,3-dimethylpiperidin-4-ol] | ≤ 15 nM | 10.1 to 20 nM | – |
| CC(C)c1ccc(N2CC(CS(C)(=O)=O)C2)c2cnc(Nc3ccnc(N4CC[C@](C)(O)[C@](C)(F)C4)n3)cc12 (single isomer, unassigned) [Compound 113, (3R,4S)-3-fluoro-1-[4-({8-[3-(methanesulfonylmethyl)azetidin-1-yl]-5-(propan-2-yl)isoquinolin-3-yl}amino)pyrimidin-2-yl]-3,4-dimethylpiperidin-4-ol or (3S,4R)-3-fluoro-1-[4-({8-[3-(methanesulfonylmethyl)azetidin-1-yl]-5-(propan-2-yl)isoquinolin-3-yl}amino)pyrimidin-2-yl]-3,4-dimethylpiperidin-4-ol] | ≤ 15 nM | 10.1 to 20 nM | – |
| CC(C)c1ccc(N2C[C@H](CS(C)(=O)=O)[C@H]2C)c2cnc(Nc3cnnc(N4CC[C@@](C)(O)[C@@H](F)C4)n3)cc12 (single isomer, unassigned) [Compound 142] | ≤ 15 nM | 20.1 to 30 nM | – |
| CO[C@@H]1CCN(c2nccc(Nc3cc4c(C(C)C)cnc(N5C[C@H](CS(C)(=O)=O)[C@H]5C)c4cn3)n2)C[C@@H]1F [Compound 132, N-{2-[(3S,4R)-3-fluoro-4-methoxypiperidin-1-yl]pyrimidin-4-yl}-8-[(2R,3S)-3-(methanesulfonylmethyl)-2-methylazetidin-1-yl]-5-(propan-2-yl)-2,7-naphthyridin-3-amine] | ≤ 15 nM | ≤ 10 nM | – |
| (R)-methyl({1-[3-({2-[(3R,4S)-3-fluoro-4-methoxypiperidin-1-yl]pyrimidin-4-yl}amino)-5-(propan-2-yl)isoquinolin-8-yl]azetidin-3-yl}methyl)imino-λ^6-sulfanone or (S)-methyl({1-[3-({2-[(3R,4S)-3-fluoro-4-methoxypiperidin-1-yl]pyrimidin-4-yl}amino)-5-(propan-2-yl)isoquinolin-8-yl]azetidin-3-yl}methyl)imino-λ^6-sulfanone [Compound 274] | 15.1 to 20 nM | – | 10.1 to 20 nM |
| CC(C)c1cnc(N2C[C@H](CS(C)(=O)=O)[C@H]2C)c2cnc(Nc3ccnc(N4CC[C@H]5COC[C@H]54)n3)cc12 (single isomer, unassigned) [Compound 266, N-{2-[(3aR,6aS)-hexahydro-1H-furo[3,4-b]pyrrol-1-yl]pyrimidin-4-yl}-8-[(2R,3S)-3-(methanesulfonylmethyl)-2-methylazetidin-1-yl]-5-(propan-2-yl)-2,7-naphthyridin-3-amine or N-{2-[(3aS,6aR)-hexahydro-1H-furo[3,4-b]pyrrol-1-yl]pyrimidin-4-yl}-8-[(2R,3S)-3-(methanesulfonylmethyl)-2-methylazetidin-1-yl]-5-(propan-2-yl)-2,7-naphthyridin-3-amine] | ≤ 15 nM | ≤ 10 nM | – |
| CC(C)c1ccc(N2CC(CS(C)(=O)=O)C2)c2cnc(Nc3ccnc(N4CC[C@](C)(O)C(F)(F)C4)n3)cc12 (single isomer, unassigned) [Compound 153, (4S)-3,3-difluoro-1-[4-({8-[3-(methanesulfonylmethyl)azetidin-1-yl]-5-(propan-2-yl)isoquinolin-3-yl}amino)pyrimidin-2-yl]-4-methylpiperidin-4-ol or (4R)-3,3-difluoro-1-[4-({8-[3-(methanesulfonylmethyl)azetidin-1-yl]-5-(propan-2-yl)isoquinolin-3-yl}amino)pyrimidin-2-yl]-4-methylpiperidin-4-ol] | ≤ 15 nM | 10.1 to 20 nM | – |
| CC(C)c1ccc(N2C[C@H](CS(C)(=O)=O)[C@H]2C)c2cnc(Nc3ccnc(N4CCC(N)C(F)(F)C4)n3)cc12 (single isomer, unassigned) [Compound 152, N-(2-((R)-4-amino-3,3-difluoropiperidin-1-yl)pyrimidin-4-yl)-5-isopropyl-8-((2R,3S)-2-methyl-3-(methylsulfonylmethyl)azetidin-1-yl(isoquinolin-3-amine or N-(2-((S)-4-amino-3,3-difluoropiperidin-1-yl)pyrimidin-4-yl)-5-isopropyl-8-((2R,3S)-2-methyl-3-((methylsulfonyl)methyl)azetidin-1-yl)isoquinolin-3-amine] | ≤ 15 nM | ≤ 10 nM | – |
| CCS(=O)(=O)CC1CN(c2ccc(C(C)C)c3cc(Nc4ccnc(N5C[C@@H](F)[C@@H](O)C(C)(C)C5)n4)ncc23)C1 (single isomer, unassigned) [Compound 182, (4S,5R)-1-{4-[(8-{3-[(ethanesulfonyl)methyl]azetidin-1-yl}-5-(propan-2-yl)isoquinolin-3-yl)amino]pyrimidin-2-yl}-5-fluoro-3,3-dimethylpiperidin-4-ol or (4R,5S)-1-{4-[(8-{3-[(ethanesulfonyl)methyl]azetidin-1-yl}-5-(propan-2-yl)isoquinolin-3-yl)amino]pyrimidin-2-yl}-5-fluoro-3,3-dimethylpiperidin-4-ol] | ≤ 15 nM | ≤ 10 nM | – |
| CC(C)c1ccc(N2CC(CS(C)(=O)=O)C2)c2cnc(Nc3cnnc(N4CCC5(CCO5)CC4)n3)cc12 [Compound 42, 8-[3-(methanesulfonylmethyl)azetidin-1-yl]-N-(3-{1-oxa-7-azaspiro[3.5]nonan-7-yl}-1,2,4-triazin-5-yl)-5-(propan-2-yl)isoquinolin-3-amine] | ≤ 15 nM | 10.1 to 20 nM | – |
| CC(C)c1cnc(N2CC(CS(C)(=O)=O)C2)c2cnc(Nc3ccnc(N4C[C@H](F)[C@@H](F)C4)n3)cc12 (single isomer, unassigned) [Compound 9, N-{2-[(3R,4R)-3,4-difluoropyrrolidin-1-yl]pyrimidin-4-yl}-8-[3-(methanesulfonylmethyl)azetidin-1-yl]-5-(propan-2-yl)-2,7-naphthyridin-3-amine or N-{2-[(3S,4S)-3,4-difluoropyrrolidin-1-yl]pyrimidin-4-yl}-8-[3-(methanesulfonylmethyl)azetidin-1-yl]-5-(propan-2-yl)-2,7-naphthyridin-3-amine] | ≤ 15 nM | – | 10.1 to 20 nM |
| CCS(=O)(=O)CC1CN(c2ccc(C(C)C)c3cc(Nc4ccnc(N5CC[C@](C)(O)[C@H](F)C5)n4)ncc23)C1 (single isomer, unassigned) [Compound 277] | ≤ 15 nM | 10.1 to 20 nM | – |
| [2H]C([2H])([2H])O[C@H]1[C@@H](O)CN(c2nccc(Nc3cc4c(C(C)C)ccc(N5C[C@H](CS(C)(=O)=O)[C@H]5C)c4cn3)n2)CC1(F)F (single isomer, unassigned) [Compound 314, (3S,4S)-5,5-difluoro-1-(4-((5-isopropyl-8-((2R,3S)-2-methyl-3-((methylsulfonyl)methyl)azetidin-1-yl)isoquinolin-3-yl)amino)pyrimidin-2-yl)-4-(^2H3)methoxypiperidin-3-ol or (3R,4R)-5,5-difluoro-1-(4-((5-isopropyl-8-((2R,3S)-2-methyl-3-((methylsulfonyl)methyl)azetidin-1-yl)isoquinolin-3-yl)amino)pyrimidin-2-yl)-4-(^2H3)methoxypiperidin-3-ol] | 30.1 to 100 nM | – | ≤ 10 nM |
| CCOc1ccc(N2CC(CS(C)(=O)=O)C2)c2cnc(Nc3ccnc(N4CC[C@@H](O)[C@@](C)(F)C4)n3)cc12 (single isomer, unassigned) [Compound 78] | ≤ 15 nM | 20.1 to 30 nM | – |
